Experimental findings from article doi:10.1101/2023.11.24.568596v1 (biorxiv, 2023) are described below.

Common to all, as to conditions: binder
Experiment [1] addresses LOK (Homo sapiens, UniProt O94804).
Experiment [2] has as its target T1, MARK4 (Homo sapiens, UniProt Q96L34).
T1 sequence (Q96L34 1-752): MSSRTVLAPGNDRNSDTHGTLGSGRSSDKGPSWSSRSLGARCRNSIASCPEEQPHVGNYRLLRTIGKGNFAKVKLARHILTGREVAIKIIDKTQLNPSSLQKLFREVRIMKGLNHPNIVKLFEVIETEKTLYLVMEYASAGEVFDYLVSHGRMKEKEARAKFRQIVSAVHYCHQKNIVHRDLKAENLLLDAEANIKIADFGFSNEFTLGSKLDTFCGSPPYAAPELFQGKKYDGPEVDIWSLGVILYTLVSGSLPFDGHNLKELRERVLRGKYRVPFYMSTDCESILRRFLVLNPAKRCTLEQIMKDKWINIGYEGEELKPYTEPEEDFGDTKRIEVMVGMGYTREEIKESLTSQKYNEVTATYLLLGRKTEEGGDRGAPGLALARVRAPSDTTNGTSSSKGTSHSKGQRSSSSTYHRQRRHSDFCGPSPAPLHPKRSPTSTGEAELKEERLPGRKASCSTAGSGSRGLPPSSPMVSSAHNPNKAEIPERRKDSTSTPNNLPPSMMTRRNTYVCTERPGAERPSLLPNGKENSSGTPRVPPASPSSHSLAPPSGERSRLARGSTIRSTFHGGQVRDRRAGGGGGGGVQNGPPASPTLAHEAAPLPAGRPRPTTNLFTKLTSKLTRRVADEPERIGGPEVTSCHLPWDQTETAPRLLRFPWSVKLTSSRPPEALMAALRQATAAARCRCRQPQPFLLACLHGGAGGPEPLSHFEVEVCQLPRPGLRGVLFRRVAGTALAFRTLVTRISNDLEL

For experiment [3], the target named is EphA7 (Homo sapiens, UniProt Q15375).
Sequence of EphA7 (Q15375 whole entry): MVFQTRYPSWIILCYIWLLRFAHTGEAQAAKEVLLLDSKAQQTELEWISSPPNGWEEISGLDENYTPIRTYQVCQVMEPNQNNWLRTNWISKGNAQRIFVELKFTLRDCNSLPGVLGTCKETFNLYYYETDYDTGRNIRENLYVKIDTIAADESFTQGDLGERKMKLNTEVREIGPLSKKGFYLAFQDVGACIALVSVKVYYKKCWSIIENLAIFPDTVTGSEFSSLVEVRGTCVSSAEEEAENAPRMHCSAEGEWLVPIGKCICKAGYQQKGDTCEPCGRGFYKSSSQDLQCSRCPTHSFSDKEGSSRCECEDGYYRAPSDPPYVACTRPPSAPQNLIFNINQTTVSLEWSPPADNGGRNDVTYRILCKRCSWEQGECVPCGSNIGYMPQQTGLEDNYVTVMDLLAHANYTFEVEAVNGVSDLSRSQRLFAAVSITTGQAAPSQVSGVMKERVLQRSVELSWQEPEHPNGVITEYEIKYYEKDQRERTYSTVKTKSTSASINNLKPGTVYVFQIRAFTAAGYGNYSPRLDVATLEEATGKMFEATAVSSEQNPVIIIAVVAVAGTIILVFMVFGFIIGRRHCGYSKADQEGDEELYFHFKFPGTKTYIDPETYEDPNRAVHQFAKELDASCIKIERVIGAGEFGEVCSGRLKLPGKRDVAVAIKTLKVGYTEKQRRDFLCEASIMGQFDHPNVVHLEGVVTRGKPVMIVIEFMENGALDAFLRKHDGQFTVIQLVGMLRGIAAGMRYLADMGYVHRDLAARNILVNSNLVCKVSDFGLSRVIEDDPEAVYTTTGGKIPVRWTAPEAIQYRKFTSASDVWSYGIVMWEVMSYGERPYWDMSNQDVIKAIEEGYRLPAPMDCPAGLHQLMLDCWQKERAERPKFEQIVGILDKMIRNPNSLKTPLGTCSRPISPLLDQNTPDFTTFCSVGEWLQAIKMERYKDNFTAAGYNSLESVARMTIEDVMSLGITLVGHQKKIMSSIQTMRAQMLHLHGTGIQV
Experiment [4] has as its target MARK3 (Homo sapiens, UniProt P27448).
The target in experiment [5] is T2, MST1 (Homo sapiens, UniProt Q13043).
T2 sequence (Q13043 1-487): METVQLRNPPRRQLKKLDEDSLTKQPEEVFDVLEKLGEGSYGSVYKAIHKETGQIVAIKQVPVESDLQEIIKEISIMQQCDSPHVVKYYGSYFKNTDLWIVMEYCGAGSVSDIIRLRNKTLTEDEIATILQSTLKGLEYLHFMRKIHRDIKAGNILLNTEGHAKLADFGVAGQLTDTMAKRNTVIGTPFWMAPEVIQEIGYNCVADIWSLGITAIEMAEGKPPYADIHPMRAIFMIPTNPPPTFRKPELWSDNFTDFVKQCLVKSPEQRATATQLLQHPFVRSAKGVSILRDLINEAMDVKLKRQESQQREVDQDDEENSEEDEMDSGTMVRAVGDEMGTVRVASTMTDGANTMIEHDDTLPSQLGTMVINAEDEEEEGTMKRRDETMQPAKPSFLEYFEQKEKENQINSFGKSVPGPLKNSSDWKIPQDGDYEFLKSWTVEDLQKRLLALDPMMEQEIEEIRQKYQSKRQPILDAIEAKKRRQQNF

Experiment [6] concerns the target CLK1 (Homo sapiens, UniProt P49759).
Experiment [7] deals with CaMKK2 (Homo sapiens, UniProt Q96RR4).
Sequence of CaMKK2 (Q96RR4 whole entry): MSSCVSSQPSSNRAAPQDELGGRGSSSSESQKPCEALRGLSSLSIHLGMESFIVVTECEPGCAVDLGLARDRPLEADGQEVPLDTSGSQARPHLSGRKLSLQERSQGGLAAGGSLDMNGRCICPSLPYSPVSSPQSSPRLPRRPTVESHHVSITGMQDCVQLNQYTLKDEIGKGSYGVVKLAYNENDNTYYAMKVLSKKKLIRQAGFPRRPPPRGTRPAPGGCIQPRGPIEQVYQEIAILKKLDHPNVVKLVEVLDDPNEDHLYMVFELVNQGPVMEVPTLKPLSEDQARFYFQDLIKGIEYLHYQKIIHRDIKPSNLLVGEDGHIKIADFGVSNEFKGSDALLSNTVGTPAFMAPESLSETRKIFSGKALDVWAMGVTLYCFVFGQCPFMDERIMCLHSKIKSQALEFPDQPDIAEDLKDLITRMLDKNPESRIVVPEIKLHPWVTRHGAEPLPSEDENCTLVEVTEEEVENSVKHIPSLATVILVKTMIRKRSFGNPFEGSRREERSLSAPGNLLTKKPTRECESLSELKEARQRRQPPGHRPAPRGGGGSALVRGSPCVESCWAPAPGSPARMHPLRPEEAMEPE
Experiment [8] addresses T3, MAP2K4 (Homo sapiens, UniProt P45985).
T3 sequence (P45985 1-399): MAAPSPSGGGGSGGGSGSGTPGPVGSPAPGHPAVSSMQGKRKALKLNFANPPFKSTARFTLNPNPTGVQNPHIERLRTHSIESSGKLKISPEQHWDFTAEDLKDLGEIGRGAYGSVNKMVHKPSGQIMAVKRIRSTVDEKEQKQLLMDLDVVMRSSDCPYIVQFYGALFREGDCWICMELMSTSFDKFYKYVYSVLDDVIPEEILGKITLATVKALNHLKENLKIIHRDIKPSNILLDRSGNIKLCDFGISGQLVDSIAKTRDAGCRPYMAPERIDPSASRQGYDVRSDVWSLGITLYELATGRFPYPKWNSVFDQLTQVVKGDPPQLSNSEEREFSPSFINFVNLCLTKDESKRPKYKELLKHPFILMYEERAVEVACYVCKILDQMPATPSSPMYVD

Experiment [9] addresses PIM1 (Homo sapiens, UniProt P11309).

The structures appear in SMILES notation.

Sequence of MARK3 (P27448 whole entry): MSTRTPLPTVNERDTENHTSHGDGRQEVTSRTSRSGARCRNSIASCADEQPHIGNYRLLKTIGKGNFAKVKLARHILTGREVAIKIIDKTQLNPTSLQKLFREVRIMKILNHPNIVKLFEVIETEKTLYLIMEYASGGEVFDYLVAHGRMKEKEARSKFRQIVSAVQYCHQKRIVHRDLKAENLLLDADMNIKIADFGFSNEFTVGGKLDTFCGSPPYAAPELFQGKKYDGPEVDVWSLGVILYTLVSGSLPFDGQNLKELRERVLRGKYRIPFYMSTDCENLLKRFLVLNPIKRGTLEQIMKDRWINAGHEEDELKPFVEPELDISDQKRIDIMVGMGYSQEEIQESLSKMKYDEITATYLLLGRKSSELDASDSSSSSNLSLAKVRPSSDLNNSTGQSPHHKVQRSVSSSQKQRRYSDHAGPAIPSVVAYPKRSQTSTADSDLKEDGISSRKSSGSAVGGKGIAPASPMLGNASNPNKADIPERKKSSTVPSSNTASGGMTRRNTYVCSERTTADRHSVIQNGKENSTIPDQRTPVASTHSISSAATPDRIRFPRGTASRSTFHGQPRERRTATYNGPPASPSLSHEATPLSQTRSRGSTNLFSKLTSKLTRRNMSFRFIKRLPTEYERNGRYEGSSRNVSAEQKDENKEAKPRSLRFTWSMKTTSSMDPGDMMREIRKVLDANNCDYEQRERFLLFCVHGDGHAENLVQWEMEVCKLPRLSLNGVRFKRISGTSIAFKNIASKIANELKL
Sequence of LOK (O94804 whole entry): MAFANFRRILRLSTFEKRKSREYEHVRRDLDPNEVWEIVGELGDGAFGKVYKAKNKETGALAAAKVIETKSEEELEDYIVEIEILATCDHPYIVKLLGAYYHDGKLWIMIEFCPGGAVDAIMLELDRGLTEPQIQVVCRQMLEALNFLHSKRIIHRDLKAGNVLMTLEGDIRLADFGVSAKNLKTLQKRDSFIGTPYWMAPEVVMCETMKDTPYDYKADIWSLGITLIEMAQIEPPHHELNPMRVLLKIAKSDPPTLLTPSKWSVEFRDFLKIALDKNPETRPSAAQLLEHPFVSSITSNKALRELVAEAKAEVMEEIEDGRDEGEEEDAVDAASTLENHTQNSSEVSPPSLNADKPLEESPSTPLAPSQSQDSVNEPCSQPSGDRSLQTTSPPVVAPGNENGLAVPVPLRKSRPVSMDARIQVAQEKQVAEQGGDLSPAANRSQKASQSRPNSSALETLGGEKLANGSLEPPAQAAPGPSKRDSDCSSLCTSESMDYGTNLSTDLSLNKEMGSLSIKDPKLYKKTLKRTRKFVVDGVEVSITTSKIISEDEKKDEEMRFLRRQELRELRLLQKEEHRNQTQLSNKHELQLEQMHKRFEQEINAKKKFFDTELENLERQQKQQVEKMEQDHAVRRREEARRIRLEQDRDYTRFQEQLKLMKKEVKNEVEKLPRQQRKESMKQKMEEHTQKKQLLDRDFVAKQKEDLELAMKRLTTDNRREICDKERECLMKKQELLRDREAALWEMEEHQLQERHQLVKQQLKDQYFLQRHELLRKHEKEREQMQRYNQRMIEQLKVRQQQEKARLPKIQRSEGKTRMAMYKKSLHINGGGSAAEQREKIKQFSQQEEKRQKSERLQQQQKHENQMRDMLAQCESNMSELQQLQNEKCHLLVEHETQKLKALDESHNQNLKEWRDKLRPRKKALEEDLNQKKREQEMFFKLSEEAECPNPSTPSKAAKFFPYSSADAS
Sequence of PIM1 (P11309 whole entry): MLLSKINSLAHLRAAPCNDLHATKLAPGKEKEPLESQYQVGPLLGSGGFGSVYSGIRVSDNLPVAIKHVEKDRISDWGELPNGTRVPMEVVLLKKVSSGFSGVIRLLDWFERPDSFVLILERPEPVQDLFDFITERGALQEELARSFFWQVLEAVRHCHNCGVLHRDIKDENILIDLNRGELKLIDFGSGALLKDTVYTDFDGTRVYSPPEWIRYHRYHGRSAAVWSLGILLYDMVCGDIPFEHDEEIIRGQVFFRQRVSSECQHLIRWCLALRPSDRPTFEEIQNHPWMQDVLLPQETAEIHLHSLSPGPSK
Sequence of CLK1 (P49759 whole entry): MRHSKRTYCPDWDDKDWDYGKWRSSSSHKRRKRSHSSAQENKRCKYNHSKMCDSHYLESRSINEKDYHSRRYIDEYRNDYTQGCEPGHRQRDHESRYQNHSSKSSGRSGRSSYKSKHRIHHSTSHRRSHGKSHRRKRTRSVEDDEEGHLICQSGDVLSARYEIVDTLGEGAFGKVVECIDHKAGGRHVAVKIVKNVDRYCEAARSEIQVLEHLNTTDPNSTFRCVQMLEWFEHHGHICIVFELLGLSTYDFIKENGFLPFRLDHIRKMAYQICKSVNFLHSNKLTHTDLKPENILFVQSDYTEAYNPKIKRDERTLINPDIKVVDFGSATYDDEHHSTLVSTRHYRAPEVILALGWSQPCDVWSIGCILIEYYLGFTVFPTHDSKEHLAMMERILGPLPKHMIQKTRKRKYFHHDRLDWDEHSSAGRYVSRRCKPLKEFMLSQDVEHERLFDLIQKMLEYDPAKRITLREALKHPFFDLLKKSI

Turning to `Cc1cccc(-c2ccc(-c3cc4cnc(NCCCN5CCNCC5)nc4n(CCCCN)c3=O)c(Cl)c2)n1` [compound 29, 8-(4-Aminobutyl)-6-(2-chloro-4-(6-methylpyridin-2-yl)phenyl)-2-((3-(piperazin-1-yl)propyl)amino)pyrido[2,3-d]pyrimidin-7(8H)-one], the “ΔTm 29” value was -0.4 °C in experiment [1]; 4.8 °C in experiment [2]; 4.1 °C in [3]; 5.8 °C in experiment [4]; -0.5 °C in [5]; -0.3 °C in [6]. In addition, the results for the “ΔTm 29” value in experiment [7], in experiment [8] and in experiment [9] were 0.7 °C, 3.5 °C and 0.6 °C, respectively.

For `Cc1cccc(-c2ccc(-c3cc4cnc(NCCCN5CCCC5=O)nc4n(CCCCN)c3=O)c(Cl)c2)n1` [compound 27, MR30], the “ΔTm MR30 (27)” value in experiment [1] was -0.6 °C; in experiment [2], 3.8 °C; in experiment [3] it was 1.7 °C; in experiment [4], 4.7 °C; in experiment [5], -1.0 °C; in experiment [6] it was -0.7 °C. Also, the “ΔTm MR30 (27)” value in experiment [7] is 0.5 °C; in experiment [8], 5.2 °C; in experiment [9] it was -0.5 °C.

Turning to `Cc1cccc(-c2ccc(-c3cc4cnc(Nc5ccc(O)cc5)nc4n(CCCCN)c3=O)c(Cl)c2)n1` [compound 31, 8-(4-Aminobutyl)-6-(2-chloro-4-(6-methylpyridin-2-yl)phenyl)-2-((4-hydroxyphenyl)amino) pyrido[2,3-d]pyrimidin-7(8H)-one], the “ΔTm 31” value in experiment [1] is -0.4 °C; in [2] it was 10.4 °C; in experiment [3], 5.1 °C; in experiment [4], 10.9 °C; in [5] it was 2.0 °C; in experiment [6], 0.8 °C. Moreover, the entries for the “ΔTm 31” value in experiment [7], in [8] and in [9] were 5.2 °C, 10.8 °C and 3.7 °C, respectively.

Take `Cc1cccc(-c2ccc(-c3cc4cnc(Nc5ccc(CCCO)cc5)nc4n(CCCCN)c3=O)c(Cl)c2)n1` [compound 30, 8-(4-Aminobutyl)-6-(2-chloro-4-(6-methylpyridin-2-yl)phenyl)-2-((4-(3-hydroxypropyl)phenyl)amino)pyrido[2,3-d]pyrimidin-7(8H)-one]: the “ΔTm 30” value is -0.4 °C in experiment [1]; 9.5 °C in experiment [2]; 6.4 °C in experiment [3]; 11.6 °C in experiment [4]; 1.7 °C in experiment [5]; -0.2 °C in experiment [6]. Also, the results for the “ΔTm 30” value in experiment [7], in experiment [8] and in experiment [9] were 7.5 °C, 9.7 °C and -0.4 °C, respectively.

`Cc1cccc(-c2ccc(-c3cc4cnc(Nc5cc(C(F)(F)F)ccc5C)nc4n(CCCCN)c3=O)c(Cl)c2)n1` [compound 28, 8-(4-Aminobutyl)-6-(2-chloro-4-(6-methylpyridin-2-yl)phenyl)-2-((2-methyl-5-(trifluoromethyl)phenyl)amino)pyrido[2,3-d]pyrimidin-7(8H)-one]: the “ΔTm 28” value in experiment [1] was -0.7 °C; in [2], 2.2 °C; in experiment [3], 4.2 °C; in [4], 3.8 °C; in experiment [5], -1.6 °C; in experiment [6], 0.6 °C. The “ΔTm 28” value worked out at 2.4 °C in experiment [7], 11.0 °C in experiment [8] and 0.5 °C in experiment [9].

Consider `Cc1cccc(-c2ccc(-c3cc4cnc(Nc5ccc(C)c(O)c5)nc4n(CCCCN)c3=O)c(Cl)c2)n1` [compound 32, 8-(4-Aminobutyl)-6-(2-chloro-4-(6-methylpyridin-2-yl)phenyl)-2-((3-hydroxy-4-methylphenyl)amino)pyrido[2,3-d]pyrimidin-7(8H)-one], for which the “ΔTm 32” value in [1] is -0.2 °C; in experiment [2], 9.9 °C; in experiment [3], 5.4 °C; in [4], 10.9 °C; in experiment [5], 1.6 °C; in experiment [6] it was 0.7 °C. Further, the “ΔTm 32” value in [7] worked out at 6.8 °C; in [8] it was 10.8 °C; in experiment [9], 1.2 °C.
